From ChEMBL document CHEMBL1158549, “Synthesis and evaluation of a series of C5'-substituted duocarmycin SA analogs” (Bioorg Med Chem Lett, 2010)

System: L1210
Test: Cytotoxicity against mouse L1210 cells
Format: functional, cell-based

With `COC(=O)c1cc2c3c(cc(O)c2[nH]1)N(C(=O)c1cc2cc(OC)ccc2[nH]1)C[C@H]3CCl` the IC50 was 21 pM.

In the case of `COC(=O)c1cc2c3c(cc(O)c2[nH]1)N(C(=O)c1cc2cc(C(C)=O)ccc2[nH]1)C[C@H]3CCl`, the IC50 is reported as 38 pM.

In the case of `COC(=O)c1cc2c3c(cc(O)c2[nH]1)N(C(=O)c1cc2cc(OC(F)(F)F)ccc2[nH]1)C[C@H]3CCl`, the IC50 is reported as 85 pM.

`COC(=O)c1cc2c3c(cc(O)c2[nH]1)N(C(=O)c1cc2cc(C(F)(F)F)ccc2[nH]1)C[C@H]3CCl` gave an IC50 of 75 pM.

Molecule `COC(=O)c1cc2c([nH]1)C(=O)C=C1N(C(=O)c3cc4cc(C)ccc4[nH]3)C[C@H]3C[C@]123` has an IC50 of 77 pM.

In the case of `COC(=O)c1cc2c([nH]1)C(=O)C=C1N(C(=O)c3cc4cc(O)ccc4[nH]3)C[C@H]3C[C@]123`, the IC50 is reported as 53 pM.

In the case of `COC(=O)c1cc2c3c(cc(O)c2[nH]1)N(C(=O)c1cc2cc(O)ccc2[nH]1)C[C@H]3CCl`, the IC50 is reported as 50 pM.

`COC(=O)c1ccc2[nH]c(C(=O)N3C[C@H]4C[C@@]45C3=CC(=O)c3[nH]c(C(=O)OC)cc35)cc2c1` gave an IC50 of 47 pM.

`COC(=O)c1cc2c([nH]1)C(=O)C=C1N(C(=O)c3cc4cc(C#N)ccc4[nH]3)C[C@H]3C[C@]123` was tested, and the IC50 was 7 pM.

With `COC(=O)c1cc2c([nH]1)C(=O)C=C1N(C(=O)c3cc4cc(C(C)=O)ccc4[nH]3)C[C@H]3C[C@]123` the IC50 was 43 pM.

With `COC(=O)c1cc2c([nH]1)C(=O)C=C1N(C(=O)c3cc4cc(OC(F)(F)F)ccc4[nH]3)C[C@H]3C[C@]123` the IC50 was 49 pM.

Work on `COC(=O)c1cc2c3c(cc(O)c2[nH]1)N(C(=O)c1cc2ccccc2[nH]1)C[C@H]3CCl` yielded an IC50 of 72 pM.

With `COC(=O)c1cc2c3c(cc(O)c2[nH]1)N(C(=O)c1cc2cc(C)ccc2[nH]1)C[C@H]3CCl` the IC50 was 78 pM.

Molecule `COC(=O)c1cc2c([nH]1)C(=O)C=C1N(C(=O)c3cc4cc(OC)c(O)cc4[nH]3)C[C@H]3C[C@]123` has an IC50 of 7 pM.

For `COC(=O)c1cc2c([nH]1)C(=O)C=C1N(C(=O)c3cc4cc(O)c(OC)cc4[nH]3)C[C@H]3C[C@]123`, the IC50 was 33 pM.

`COC(=O)c1ccc2[nH]c(C(=O)N3C[C@@H](CCl)c4c3cc(O)c3[nH]c(C(=O)OC)cc43)cc2c1` showed an IC50 of 48 pM.

`COC(=O)c1cc2c3c(cc(O)c2[nH]1)N(C(=O)c1cc2cc(F)ccc2[nH]1)C[C@H]3CCl` gave an IC50 of 79 pM.

Molecule `COC(=O)c1cc2c3c(cc(O)c2[nH]1)N(C(=O)c1cc2cc(NC(C)=O)ccc2[nH]1)C[C@H]3CCl` has an IC50 of 81 pM.

Molecule `COC(=O)c1cc2c3c(cc(O)c2[nH]1)N(C(=O)c1cc2cc(S(C)(=O)=O)ccc2[nH]1)C[C@H]3CCl` has an IC50 of 58 pM.

For `COC(=O)c1cc2c([nH]1)C(=O)C=C1N(C(=O)c3cc4cc(C(F)(F)F)ccc4[nH]3)C[C@H]3C[C@]123`, the IC50 was 65 pM.

In the case of `CNC(=O)c1ccc2[nH]c(C(=O)N3C[C@H]4C[C@@]45C3=CC(=O)c3[nH]c(C(=O)OC)cc35)cc2c1`, the IC50 is reported as 70 pM.

`COC(=O)c1cc2c([nH]1)C(=O)C=C1N(C(=O)c3cc4cc(F)ccc4[nH]3)C[C@H]3C[C@]123` was tested, and the IC50 was 54 pM.

`CNC(=O)c1ccc2[nH]c(C(=O)N3C[C@@H](CCl)c4c3cc(O)c3[nH]c(C(=O)OC)cc43)cc2c1` was tested, and the IC50 was 61 pM.

In the case of `COC(=O)c1cc2c([nH]1)C(=O)C=C1N(C(=O)c3cc4cc([N+](=O)[O-])ccc4[nH]3)C[C@H]3C[C@]123`, the IC50 is reported as 41 pM.

`COC(=O)c1cc2c([nH]1)C(=O)C=C1N(C(=O)c3cc4cc(NC(C)=O)ccc4[nH]3)C[C@H]3C[C@]123` showed an IC50 of 83 pM.

In the case of `COC(=O)c1cc2c([nH]1)C(=O)C=C1N(C(=O)c3cc4cc(S(C)(=O)=O)ccc4[nH]3)C[C@H]3C[C@]123`, the IC50 is reported as 58 pM.

`COC(=O)c1cc2c3c(cc(O)c2[nH]1)N(C(=O)c1cc2cc(C#N)ccc2[nH]1)C[C@H]3CCl` gave an IC50 of 9 pM.

Molecule `COC(=O)c1cc2c([nH]1)C(=O)C=C1N(C(=O)c3cc4cc(OC)ccc4[nH]3)C[C@H]3C[C@]123` has an IC50 of 7.5 pM.

For `COC(=O)c1cc2c([nH]1)C(=O)C=C1N(C(=O)c3cc4ccccc4[nH]3)C[C@H]3C[C@]123`, the IC50 was 68 pM.

For `COC(=O)c1cc2c([nH]1)C(=O)C=C1N(C(=O)c3cc4cc(OC)c(OC)c(OC)c4[nH]3)C[C@H]3C[C@]123` [DUOCARMYCIN], the IC50 was 6 pM.
